Positions of bridges follow the written chain, without caps; N, C: chain ends. Non-standard residues stand in square brackets, D forms with d. Residues, ends and D or L forms follow the SMILES beside them. *: point of attachment. hPhe(3-Cl-4-CF3) = N[C@@H](CCc1ccc(C(F)(F)F)c(Cl)c1)C(=O)O; NMePhe(4-CF3) = CN[C@@H](Cc1ccc(C(F)(F)F)cc1)C(=O)O; 3Oxa8azabicyclo(3.2.1)octane = C1CC2COCC1N2*; NMePhe(4-Me) = CN[C@@H](Cc1ccc(C)cc1)C(=O)O; NMeAla(cPent) = CN[C@@H](CC1CCCC1)C(=O)O; NMeChg = CN[C@H](C(=O)O)C1CCCCC1; NMeI = CC[C@H](C)[C@H](NC)C(=O)O; N(CH2CH2)2CF2 = FC1(F)CCN(*)CC1; NMeD = CN[C@@H](CC(=O)O)C(=O)O; NMeL = CN[C@@H](CC(C)C)C(=O)O; NMeNva = CCC[C@H](NC)C(=O)O; NMeS = CN[C@@H](CO)C(=O)O; Morpholide = C1CN(*)CCO1; NMeA = CN[C@@H](C)C(=O)O; Pyrrolidide = C1CCN(*)C1; Ac5c = NC1(C(=O)O)CCCC1; Aze = O=C(O)[C@@H]1CCN1; Sar = CNCC(=O)O; Propyl = CCC*
Key:
[1] = molecular target: T1, Kras and SOS1 (biotin-tagged human Kras loaded with GDP, His-tagged human SOS1) (Homo sapiens, UniProt P01116, G12D); assay: Protein-protein interaction inhibition between Kras and SOS1 (KrasGl2D-SOS PPI) using AlphaScreen; format: binding; settings: AlphaScreen; biotin-tagged human Kras loaded with GDP, His-tagged human SOS1; read-out: KRAS G12D-SOS PPI IC50
T1 construct: made in house; host or cells: E. coli (stated for Kras only)
T1 sequence (P01116 1-188 isoform P01116-2 G12D): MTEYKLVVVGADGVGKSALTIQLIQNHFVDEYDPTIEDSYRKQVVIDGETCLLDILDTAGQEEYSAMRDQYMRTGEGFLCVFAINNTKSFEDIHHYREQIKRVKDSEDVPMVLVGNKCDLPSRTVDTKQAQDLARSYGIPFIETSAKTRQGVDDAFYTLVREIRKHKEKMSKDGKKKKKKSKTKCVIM
Summary of the method: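 Kras was produced in E. coli, purified, then loaded with GDP. It was paired via streptavidin acceptor beads with His-SOS1 held on nickel donor beads, and proximity signal at 520-620 nm was read after 680 nm illumination.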

[2] = test system: Human pancreatic cancer cell line AsPC-1; assay: Measurement of AsPC-1 cell growth inhibition (AsPC-1 CGI); format: cell-based; settings: 96 h
Summary of the method: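 AsPC-1 cells in 15% FBS RPMI-1640 were exposed to test compound for 96 hours at 37° C, with CellTiter-Glo as endpoint.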

SMILES	IC50 [1] [nM]	IC50 [2] [nM]
CCCOC[C@H]1C(=O)N(C)CC(=O)N[C@@H](CCc2ccc(C(F)(F)F)c(Cl)c2)C(=O)N2CCC[C@H]2C(=O)NC2(CCCC2)C(=O)N(C)[C@@H](C2CCCCC2)C(=O)N(C)[C@H](C(=O)N2C3CCC2COC3)CC(=O)N(C)[C@@H](CCC)C(=O)N[C@@H]([C@@H](C)CC)C(=O)N(C)CC(=O)N(C)CC(=O)N1C [Compound 1971] ([NMeNva]I[Sar][Sar][NMeS](Propyl)[Sar][hPhe(3-Cl-4-CF3)]P[Ac5c][NMeChg][NMeD]-{3Oxa8azabicyclo(3.2.1)octane}; lactam N-11)	1.1	100 to 500
CCC[C@H]1C(=O)N[C@@H]([C@@H](C)CC)C(=O)N(C)CC(=O)N(C)CC(=O)N(C)[C@@H](Cc2ccc(C(F)(F)F)cc2)C(=O)N(C)CC(=O)N[C@@H](CCc2ccc(C(F)(F)F)c(Cl)c2)C(=O)N2CCC[C@H]2C(=O)NC2(CCCC2)C(=O)N(C)[C@@H](C2CCCCC2)C(=O)N(C)[C@H](C(=O)N2CCOCC2)CC(=O)N1C [Compound 1972] ([NMeNva]I[Sar][Sar][NMePhe(4-CF3)][Sar][hPhe(3-Cl-4-CF3)]P[Ac5c][NMeChg][NMeD]-Morpholide; lactam N-11)	0.37	20 to 50
CCC[C@H]1C(=O)N[C@@H]([C@@H](C)CC)C(=O)N(C)CC(=O)N(C)CC(=O)N(C)[C@@H](CC2CCCC2)C(=O)N(C)CC(=O)N[C@@H](CCc2ccc(C(F)(F)F)c(Cl)c2)C(=O)N2CCC[C@H]2C(=O)NC2(CCCC2)C(=O)N(C)[C@@H](C2CCCCC2)C(=O)N(C)[C@H](C(=O)N2CCCC2)CC(=O)N1C [Compound 1975] ([NMeNva]I[Sar][Sar][NMeAla(cPent)][Sar][hPhe(3-Cl-4-CF3)]P[Ac5c][NMeChg][NMeD]-Pyrrolidide; lactam N-11)	0.51	50 to 100
CC[C@H](C)[C@@H]1NC(=O)[C@H](CC(C)C)N(C)C(=O)C[C@@H](C(=O)N2C3CCC2COC3)N(C)C(=O)[C@H](C2CCCCC2)N(C)C(=O)C2(CCCC2)NC(=O)[C@@H]2CCCN2C(=O)[C@H](CCc2ccc(C(F)(F)F)c(Cl)c2)NC(=O)CN(C)C(=O)[C@H](CC2CCCC2)N(C)C(=O)CN(C)C(=O)CN(C)C1=O [Compound 1976] ([NMeL]I[Sar][Sar][NMeAla(cPent)][Sar][hPhe(3-Cl-4-CF3)]P[Ac5c][NMeChg][NMeD]-{3Oxa8azabicyclo(3.2.1)octane}; lactam N-11)	1.5	100 to 500
CC[C@H](C)[C@@H]1NC(=O)[C@H](CC(C)C)N(C)C(=O)C[C@@H](C(=O)N2CCCC2)N(C)C(=O)[C@H](C2CCCCC2)N(C)C(=O)C2(CCCC2)NC(=O)[C@@H]2CCCN2C(=O)[C@H](CCc2ccc(C(F)(F)F)c(Cl)c2)NC(=O)CN(C)C(=O)[C@H](Cc2ccc(C(F)(F)F)cc2)N(C)C(=O)CN(C)C(=O)CN(C)C1=O [Compound 1978] ([NMeL]I[Sar][Sar][NMePhe(4-CF3)][Sar][hPhe(3-Cl-4-CF3)]P[Ac5c][NMeChg][NMeD]-Pyrrolidide; lactam N-11)	0.51	20 to 50
CC[C@H](C)[C@@H]1NC(=O)[C@H](CC(C)C)N(C)C(=O)C[C@@H](C(=O)N(C)C)N(C)C(=O)[C@H]([C@@H](C)CC)N(C)C(=O)C2(CCCC2)NC(=O)[C@H](CC(=O)N2CCC(F)(F)CC2)N(C)C(=O)[C@H](CCc2ccc(C(F)(F)F)c(Cl)c2)NC(=O)CN(C)C(=O)[C@H](Cc2ccc(C)cc2)N(C)C(=O)[C@@H]2CCN2C(=O)[C@H](C)N(C)C1=O [Compound 1980] ([NMeL]I[NMeA][Aze][NMePhe(4-Me)][Sar][hPhe(3-Cl-4-CF3)][NMeD](N(CH2CH2)2CF2)[Ac5c][NMeI][NMeD]-NMe2; lactam N-11)	1.5	100 to 500
